# Data published in patent US20210395239A1 (Hoffmann-La Roche Inc., priority 2018, published 2021).
# Target: T1, human TLR8 (Homo sapiens, UniProt Q9NR97)
# T1 construct: host or cells: HEK293 (HEK-Blue hTLR8)
# T1 sequence (Q9NR97 27-1041): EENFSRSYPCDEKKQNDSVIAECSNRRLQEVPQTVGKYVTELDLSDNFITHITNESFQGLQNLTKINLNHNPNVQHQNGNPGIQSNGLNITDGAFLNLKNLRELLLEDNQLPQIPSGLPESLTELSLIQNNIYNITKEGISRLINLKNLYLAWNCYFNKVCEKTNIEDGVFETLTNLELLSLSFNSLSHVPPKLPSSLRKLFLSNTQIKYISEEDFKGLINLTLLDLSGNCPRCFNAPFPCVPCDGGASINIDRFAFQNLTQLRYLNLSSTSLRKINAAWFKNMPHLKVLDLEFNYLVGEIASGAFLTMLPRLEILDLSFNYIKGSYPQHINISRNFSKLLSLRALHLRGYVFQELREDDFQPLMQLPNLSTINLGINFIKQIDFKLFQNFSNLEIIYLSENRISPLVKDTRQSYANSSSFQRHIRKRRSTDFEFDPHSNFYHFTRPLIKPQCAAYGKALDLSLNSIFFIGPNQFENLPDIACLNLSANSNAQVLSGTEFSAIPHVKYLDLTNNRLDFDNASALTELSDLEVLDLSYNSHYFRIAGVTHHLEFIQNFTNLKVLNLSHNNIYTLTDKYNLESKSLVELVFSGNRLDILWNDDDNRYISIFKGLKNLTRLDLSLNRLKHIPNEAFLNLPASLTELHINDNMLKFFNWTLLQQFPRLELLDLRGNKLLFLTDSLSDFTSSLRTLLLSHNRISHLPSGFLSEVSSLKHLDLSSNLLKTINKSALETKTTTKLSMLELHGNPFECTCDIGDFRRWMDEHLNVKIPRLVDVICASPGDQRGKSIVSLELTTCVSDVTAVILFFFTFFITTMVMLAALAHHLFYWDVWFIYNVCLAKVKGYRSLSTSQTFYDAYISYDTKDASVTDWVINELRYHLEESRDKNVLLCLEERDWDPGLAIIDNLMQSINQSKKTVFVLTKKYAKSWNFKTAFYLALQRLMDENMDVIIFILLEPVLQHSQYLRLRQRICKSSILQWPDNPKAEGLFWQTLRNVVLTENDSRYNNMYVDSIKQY
# Experiment: HEK293-Blue-hTLR-8 cells assay (SEAP reporter, R848 stimulation)
# Type: cell-based
# Conditions: HEK293-Blue-hTLR8 cells, R848, 20 hrs; read-out: HEK/hTLR8 IC50
# How it was run: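 Antagonism read as reduced R848-induced SEAP reporter secretion, detected by QUANTI-Blue absorbance at 620–655 nm after 2 h. Reporter cells were exposed to compound dilutions in DMEM/10% FBS, 1% DMSO, for 20 h at 37° C.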
row,Compound,IC50
1,"C[C@@H]1CN(c2ccc(C#N)c3ncccc23)C[C@H](CN2CCN(c3cccc(N4CCNCC4)n3)CC2)O1 [Example 10, 5-[(2R,6S)-2-methyl-6-[[4-(6-piperazin-1-yl-2-pyridyl)piperazin-1-yl]methyl]morpholin-4-yl]quinoline-8-carbonitrile]",10 nM
2,"C[C@@H]1CN(c2ccc(C#N)c3ncccc23)C[C@H](CN2CCN(c3cnc(N4CCNCC4)nc3)CC2)O1 [Example 12, 5-[(2R,6S)-2-methyl-6-[[4-(2-piperazin-1-ylpyrimidin-5-yl)piperazin-1-yl]methyl]morpholin-4-yl]quinoline-8-carbonitrile]",3 nM
3,"C[C@@H]1CN(c2ccc(C#N)c3ncccc23)C[C@H](CN2CCN(c3ccc(N4CCNCC4)nc3)CC2)O1 [Example 13, 5-[(2R,6S)-2-methyl-6-[[4-(6-piperazin-1-yl-3-pyridyl)piperazin-1-yl]methyl]morpholin-4-yl]quinoline-8-carbonitrile]",5 nM
4,"C[C@@H]1CN(c2ccc(C#N)c3ncccc23)C[C@H](CN2CCN(c3ncc(N4CCNCC4)cn3)CC2)O1 [Example 17, 5-[(2R,6S)-2-methyl-6-[[4-(5-piperazin-1-ylpyrimidin-2-yl)piperazin-1-yl]methyl]morpholin-4-yl]quinoline-8-carbonitrile]",6 nM
5,"C[C@@H]1CN(c2ccc(C#N)c3ncccc23)C[C@H](CN2CCN(c3cc(N4CCNCC4)ncn3)CC2)O1 [Example 18, 5-[(2R,6S)-2-methyl-6-[[4-(6-piperazin-1-ylpyrimidin-4-yl)piperazin-1-yl]methyl]morpholin-4-yl]quinoline-8-carbonitrile]",6 nM
6,"C[C@@H]1CN(c2ccc(C#N)c3ncccc23)C[C@H](CN2CCN(c3ccc([C@H]4CNCCO4)cc3)CC2)O1 [Example 20, 5-[(2R,6S)-2-methyl-6-[[4-[4-[(2S)-morpholin-2-yl]phenyl]piperazin-1-yl]methyl]morpholin-4-yl]quinoline-8-carbonitrile]",10 nM
7,"C[C@@H]1CN(c2ccc(C#N)c3ncccc23)C[C@H](CN2CCN(c3ccnc(N4CC(N)C4)n3)CC2)O1 [Example 23, 5-[(2S,6R)-2-[[4-[2-(3-aminoazetidin-1-yl)pyrimidin-4-yl]piperazin-1-yl]methyl]-6-methyl-morpholin-4-yl]quinoline-8-carbonitrile]",18 nM
8,"CO[C@H]1CN(c2nccc(N3CCN(C[C@H]4CN(c5ccc(C#N)c6ncccc56)C[C@@H](C)O4)CC3)n2)C[C@@H]1N [Example 26, 5-[(2S,6R)-2-[[4-[2-trans-(3-amino-4-methoxy-pyrrolidin-1-yl)pyrimidin-4-yl]piperazin-1-yl]methyl]-6-methyl-morpholin-4-yl]quinoline-8-carbonitrile]",3 nM
9,"C[C@@H]1CN(c2ccc(C#N)c3ncccc23)C[C@H](CN2CCN(c3ccnc(N4CCC(N)CC4)n3)CC2)O1 [Example 27, 5-[(2S,6R)-2-[[4-[2-(4-amino-1-piperidyl)pyrimidin-4-yl]piperazin-1-yl]methyl]-6-methyl-morpholin-4-yl]quinoline-8-carbonitrile]",3 nM
10,"C[C@@H]1CN(c2ccc(C#N)c3ncccc23)C[C@H](CN2CCN(c3ccnc(NC4CNC4)n3)CC2)O1 [Example 28, 5-[(2S,6R)-2-[[4-[2-(azetidin-3-ylamino)pyrimidin-4-yl]piperazin-1-yl]methyl]-6-methyl-morpholin-4-yl]quinoline-8-carbonitrile]",4 nM
11,"C[C@@H]1CN(c2ccc(C#N)c3ncccc23)C[C@H](CN2CCN(c3ccnc(OCCN(C)C)n3)CC2)O1 [Example 30, 5-[(2S,6R)-2-[[4-[2-[2-(dimethylamino)ethoxy]pyrimidin-4-yl]piperazin-1-yl]methyl]-6-methyl-morpholin-4-yl]quinoline-8-carbonitrile]",6 nM
12,"C[C@@H]1CN(c2ccc(C#N)c3ncccc23)C[C@H](CN2CCN(c3ccnc(N4CCN(C(=O)[C@@H]5CCCN5)CC4)n3)CC2)O1 [Example 31, 5-[(2R,6S)-2-methyl-6-[[4-[2-[4-[(2S)-pyrrolidine-2-carbonyl]piperazin-1-yl]pyrimidin-4-yl]piperazin-1-yl]methyl]morpholin-4-yl]quinoline-8-carbonitrile]",5 nM
13,"C[C@@H]1CN(c2ccc(C#N)c3ncccc23)C[C@H](CN2CCN(c3ccnc(N4CCN(C(=O)CN(C)C)CC4)n3)CC2)O1 [Example 32, 5-[(2S,6R)-2-[[4-[2-[4-[2-(dimethylamino)acetyl]piperazin-1-yl]pyrimidin-4-yl]piperazin-1-yl]methyl]-6-methyl-morpholin-4-yl]quinoline-8-carbonitrile]",3 nM
14,"C[C@@H]1CN(c2ccc(C#N)c3ncccc23)C[C@H](CN2CCN(c3cccc(N4CCN(C)CC4)n3)CC2)O1 [Example 33, 5-[(2R,6S)-2-methyl-6-[[4-[6-(4-methylpiperazin-1-yl)-2-pyridyl]piperazin-1-yl]methyl]morpholin-4-yl]quinoline-8-carbonitrile]",7 nM
15,"C[C@@H]1CN(c2ccc(C#N)c3ncccc23)C[C@H](CN2CCN(c3ccnc(N4CCN(C(=O)C5CCN5)CC4)n3)CC2)O1 (stereo partly drawn) [Example 34, 5-[(2S,6R)-2-[[4-[2-[4-(azetidine-2-carbonyl)piperazin-1-yl]pyrimidin-4-yl]piperazin-1-yl]methyl]-6-methyl-morpholin-4-yl]quinoline-8-carbonitrile]",4 nM

# The remaining lines, values ahead:
row,IC50,Compound
1,3 nM,"CO[C@H]1CN(c2nc(C)cc(N3CCN(C[C@H]4CN(c5ccc(C#N)c6ncccc56)C[C@@H](C)O4)CC3)n2)CC1N (relative stereo) [Example 59, 5-[(2R,6S)-2-methyl-6-[[4-[6-methyl-2-[trans-3-amino-4-methoxy-pyrrolidin-1-yl]pyrimidin-4-yl]piperazin-1-yl]methyl]morpholin-4-yl]quinoline-8-carbonitrile]"
2,3 nM,"Cc1cc(N2CCN(C[C@H]3CN(c4ccc(C#N)c5ncccc45)C[C@@H](C)O3)CC2)nc(N2CC(N)C(F)C2)n1 (stereo in doubt) [Example 54, 5-[(2S,6R)-2-[[4-[2-[(3S,4R)-3-amino-4-fluoro-pyrrolidin-1-yl]-6-methyl-pyrimidin-4-yl]piperazin-1-yl]methyl]-6-methyl-morpholin-4-yl]quinoline-8-carbonitrile]"
3,93 nM,"COC1CN(c2ccc(C3CN(C[C@H]4CN(c5cc(=O)n(C)c6ncccc56)C[C@@H](C)O4)C3)cc2)C[C@H]1N (stereo in doubt) [Example 172, 4-[(2S,6R)-2-[[3-[4-[(3R,4R)-3-amino-4-methoxy-pyrrolidin-1-yl]phenyl]azetidin-1-yl]methyl]-6-methyl-morpholin-4-yl]-1-methyl-1,8-naphthyridin-2-one]"
4,159 nM,"C[C@@H]1CN(c2cc(=O)n(C)c3ncccc23)C[C@H](CN2CC(c3ccc(N4CC(F)[C@H](N)C4)cc3)C2)O1 (stereo in doubt) [Example 174, 4-[(2S,6R)-2-[[3-[4-[(3R,4R)-3-amino-4-fluoro-pyrrolidin-1-yl]phenyl]azetidin-1-yl]methyl]-6-methyl-morpholin-4-yl]-1-methyl-1,8-naphthyridin-2-one]"
5,13 nM,"C[C@@H]1CN(c2ccc(C#N)n3ncc(F)c23)C[C@H](CN2CCN(c3ccc(C4CNCCO4)cc3F)CC2)O1 (stereo in doubt) [Example 183, 3-fluoro-4-[(2S,6R)-2-[[4-[2-fluoro-4-[(2S)-morpholin-2-yl]phenyl]piperazin-1-yl]methyl]-6-methyl-morpholin-4-yl]pyrazolo[1,5-a]pyridine-7-carbonitrile]"
6,33 nM,"C[C@@H]1CN(c2ccc(C#N)c3ncccc23)C[C@H](CN2CCN(c3cccc(N[C@H]4CNC[C@@H]4F)n3)CC2)O1 [Example 35, 5-[(2S,6R)-2-[[4-[6-[[(3S,4S)-4-fluoropyrrolidin-3-yl]amino]-2-pyridyl]piperazin-1-yl]methyl]-6-methyl-morpholin-4-yl]quinoline-8-carbonitrile]"
7,11 nM,"C[C@@H]1CN(c2ccc(C#N)c3ncccc23)C[C@H](CN2CCN(c3cccc(N4CCC(N)CC4)n3)CC2)O1 [Example 36, 5-[(2S,6R)-2-[[4-[6-(4-amino-1-piperidyl)-2-pyridyl]piperazin-1-yl]methyl]-6-methyl-morpholin-4-yl]quinoline-8-carbonitrile]"
